Results published in publication PMC8041433 (Environmental Health Perspectives, 2021).
“And” between values parts separate entries of the source, which are not always exact repeats. Identical values can stand only once. Like-named read-outs stand apart in the source and are kept apart here.

Experiments:
recombinant human AChE [1] = target: T1, recombinant human AChE (Homo sapiens, UniProt P22303); assay: biochemical; format: biochemical; conditions: for AC50: AC50 (uM)
recombinant human AChE [2] = target: T1, recombinant human AChE; assay: biochemical
[3] = target: AChE in SH-SY5Y spheroids (Homo sapiens, UniProt P22303); assay: cell-based
Sequence of AChE in SH-SY5Y spheroids (P22303 32-614): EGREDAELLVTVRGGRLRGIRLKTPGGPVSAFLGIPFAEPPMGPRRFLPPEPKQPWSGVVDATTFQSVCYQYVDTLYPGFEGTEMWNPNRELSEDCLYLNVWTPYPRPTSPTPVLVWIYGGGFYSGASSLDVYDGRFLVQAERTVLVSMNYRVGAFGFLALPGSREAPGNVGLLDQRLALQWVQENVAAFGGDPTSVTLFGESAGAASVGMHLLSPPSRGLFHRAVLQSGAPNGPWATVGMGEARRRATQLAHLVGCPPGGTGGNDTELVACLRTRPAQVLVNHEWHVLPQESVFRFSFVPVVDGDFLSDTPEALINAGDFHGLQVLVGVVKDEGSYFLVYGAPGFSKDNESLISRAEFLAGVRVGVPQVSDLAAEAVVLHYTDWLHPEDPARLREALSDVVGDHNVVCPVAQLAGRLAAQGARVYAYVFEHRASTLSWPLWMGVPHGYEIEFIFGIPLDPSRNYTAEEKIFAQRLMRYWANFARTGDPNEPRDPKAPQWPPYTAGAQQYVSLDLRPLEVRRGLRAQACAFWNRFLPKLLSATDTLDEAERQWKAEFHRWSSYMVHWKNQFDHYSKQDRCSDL

recombinant human AChE [4] = target: T1, recombinant human AChE
recombinant human AChE [5] = target: T1, recombinant human AChE; assay: biochemical; remark: listed apart in the source
AChE in SH-SY5Y cells = AChE in SH-SY5Y cells (Homo sapiens, UniProt P22303); assay: cell-based
Sequence of AChE in SH-SY5Y cells (P22303 32-614): as above

[6] = target: AChE in neural stem cells (Homo sapiens, UniProt P22303); assay: cell-based
Sequence of AChE in neural stem cells (P22303 32-614): as above

[7] = target: AChE in neural stem cell spheroids (Homo sapiens, UniProt P22303); assay: cell-based; conditions: for IC50: potency (IC50)
Sequence of AChE in neural stem cell spheroids (P22303 32-614): as above

recombinant human AChE [8] = target: T1, recombinant human AChE; assay: biochemical; remark: listed apart in the source
[9] = potency (IC50), Enzyme with microsomes
[10] = potency (IC50), SH-SY5Y spheroids (24 h)
[11] = potency (IC50), SH-SY5Y spheroids (48 h)
[12] = potency (IC50), SH-SY5Y cells monolayer
[13] = Neural stem cell spheroid (24 h)
[14] = Neural stem cell spheroid (48 h)
Throughout, for IR or R: key: Reversible (R); Irreversible (IR); ND, not detected in enzyme-based AChE inhibition assay from current study.

T1 sequence (P22303 32-614): as above

Question: What does the source list for `CCOP(=S)(OCC)SC(CCl)N1C(=O)c2ccccc2C1=O` (stereo not drawn) [Dialifor]?
Answer: reversibility of AChE inhibition (result in words) (recombinant human AChE [1]): irreversibility; IC50 (recombinant human AChE [2]; [9]): 2.69 µM; IC50 [3, 10]: 25.7 µM; IC50 [3, 11]: 15.7 µM; CC-v2 (curve classes) (recombinant human AChE [4]): -1.1; Efficacy (recombinant human AChE [4]): -102.338; IC50 (recombinant human AChE [5]): 28.1 ± 3.23 µM; CC-v2 (curve classes) (AChE in SH-SY5Y cells): -2.1; IC50 (AChE in SH-SY5Y cells; IC50 (uM)): 31.7 µM; IC50 (AChE in SH-SY5Y cells; [12]): 14.6 µM; IC50 [6]: 15.2 µM; IC50 [7, 13]: 9.74 µM; IC50 [7, 14]: 20.1 µM; CC-v2 (curve classes) (recombinant human AChE [8]): -2.1; Efficacy (recombinant human AChE [8]): -100.017; IC50 (recombinant human AChE [8]; potency (IC50), Enzyme): 41.1 µM

Question: Which AC50 (recombinant human AChE [1]) does the source give for `CCOP(=O)(OCC)Oc1cc(C)nc(C(C)C)n1` [Diazoxon] here?
Answer: 44.6 µM

Question: What about the IC50 (recombinant human AChE [2]; [9]) of the same compound?
Answer: 3.69 ± 0.24 µM

Question: What about the IC50 [3, 10] of the same compound?
Answer: 2.3 ± 0.96 µM

Question: And the IC50 ([3]; read-out: potency (IC50), SH-SY5Y spheroids (48 h))?
Answer: 0.5 µM

Question: And the “CC-v2 (curve classes)” value (recombinant human AChE [4])?
Answer: -1.1

Question: And the Efficacy (recombinant human AChE [4])?
Answer: -95.678

Question: What about the IC50 (recombinant human AChE [5]) of the same compound?
Answer: 2.25 ± 0.26 µM

Question: And the “CC-v2 (curve classes)” value (AChE in SH-SY5Y cells)?
Answer: -1.1

Question: What about the IC50 (AChE in SH-SY5Y cells; IC50 (uM)) of the same compound?
Answer: 0.143 µM and 0.179 µM and 0.201 µM

Question: What about the IC50 (AChE in SH-SY5Y cells; [12]) of the same compound?
Answer: 0.26 ± 0.03 µM

Question: And the IC50 [6]?
Answer: 0.24 ± 0.04 µM

Question: And the IC50 [7, 13]?
Answer: 0.22 µM

Question: And the IC50 [7, 14]?
Answer: 0.39 ± 0.07 µM

Question: And the “CC-v2 (curve classes)” value (recombinant human AChE [8])?
Answer: -1.1

Question: What about the Efficacy (recombinant human AChE [8]) of the same compound?
Answer: -95.835

Question: What about the IC50 (recombinant human AChE [8]; potency (IC50), Enzyme) of the same compound?
Answer: 1.12 ± 0.12 µM

Question: Which results are given for `Cc1cc(OC(=O)N(C)C)nn1C(=O)N(C)C` [Dimetilan]?
Answer: IR or R (recombinant human AChE [1]): R; AC50 (recombinant human AChE [1]): 49.8 µM (2×) and 31.4 µM and 19.8 µM (2×) and 55.9 µM and 12.5 µM and 5.59 µM and 14 µM; IC50 (recombinant human AChE [2]; [9]): 9.97 ± 1.14 µM; IC50 [3, 10]: 15.8 ± 16.9 µM; IC50 [3, 11]: 7.03 µM; CC-v2 (curve classes) (recombinant human AChE [4]): -2.1; Efficacy (recombinant human AChE [4]): -61.098; IC50 (recombinant human AChE [5]): 11.6 ± 1.49 µM; CC-v2 (curve classes) (AChE in SH-SY5Y cells): -1.1; IC50 (AChE in SH-SY5Y cells; IC50 (uM)): 7.1 µM; IC50 (AChE in SH-SY5Y cells; [12]): 6.89 ± 3.77 µM; IC50 [6]: 4.45 ± 0.51 µM; IC50 [7, 13]: 1.53 ± 0.26 µM; IC50 [7, 14]: 3.12 ± 1.72 µM; CC-v2 (curve classes) (recombinant human AChE [8]): -1.1; Efficacy (recombinant human AChE [8]): -84.168; IC50 (recombinant human AChE [8]; potency (IC50), Enzyme): 16 ± 3.66 µM

Question: Which results are given for `CN1CCc2cc(Cl)c(O)cc2[C@H]2c3ccccc3CC[C@@H]21` [Ecopipam, reference compound]?
Answer: IR or R (recombinant human AChE [1]): R; AC50 (recombinant human AChE [1]): 21.7 µM (2×) and 9.68 µM and 19.3 µM and 15.3 µM (2×) and 17.2 µM; IC50 (recombinant human AChE [2]; [9]): 27.3 µM; IC50 [3, 11]: 17.7 µM; CC-v2 (curve classes) (recombinant human AChE [4]): 4; Efficacy (recombinant human AChE [4]): 0; IC50 (recombinant human AChE [5]): 32.7 ± 9.64 µM; CC-v2 (curve classes) (AChE in SH-SY5Y cells): -2.2; IC50 (AChE in SH-SY5Y cells; IC50 (uM)): 27.5 µM and 34.7 µM; IC50 (AChE in SH-SY5Y cells; [12]): 15.8 µM; IC50 [6]: 17.5 µM; IC50 [7, 14]: 3.16 µM; CC-v2 (curve classes) (recombinant human AChE [8]): -2.2; Efficacy (recombinant human AChE [8]): -53.005; IC50 (recombinant human AChE [8]; IC50 (uM)): 34.7 µM; IC50 (recombinant human AChE [8]; potency (IC50), Enzyme): 20.1 µM

Question: Which results are given for `CCOP(=O)(Sc1ccccc1)Sc1ccccc1` [Edifenphos]?
Answer: AC50 (recombinant human AChE [1]): 28 µM and 62.7 µM and 31.4 µM (2×) and 25 µM and 49.8 µM and 35.2 µM; IC50 (recombinant human AChE [2]; [9]): 7.31 ± 0.49 µM; IC50 [3, 10]: 4.79 ± 1.57 µM; IC50 [3, 11]: 2.08 ± 0.37 µM; CC-v2 (curve classes) (recombinant human AChE [4]): -3; Efficacy (recombinant human AChE [4]): -113.282; IC50 (recombinant human AChE [5]): 3.03 ± 0.2 µM; CC-v2 (curve classes) (AChE in SH-SY5Y cells): -1.1; IC50 (AChE in SH-SY5Y cells; IC50 (uM)): 3.99 µM and 3.17 µM and 5.02 µM; IC50 (AChE in SH-SY5Y cells; [12]): 1.73 ± 0.43 µM; IC50 [6]: 1.31 ± 0.23 µM; IC50 [7, 13]: 0.88 ± 0.1 µM; IC50 [7, 14]: 1.21 ± 0.17 µM; CC-v2 (curve classes) (recombinant human AChE [8]): -2.1; Efficacy (recombinant human AChE [8]): -122.577; IC50 (recombinant human AChE [8]; potency (IC50), Enzyme): 4.79 ± 0.31 µM

Question: How did the AC50 (recombinant human AChE [1]) turn out when `CCOP(=S)(OCC)SCSP(=S)(OCC)OCC` [Ethion] was run?
Answer: 49.8 µM (3×) and 55.9 µM (3×) and 88.5 µM and 62.7 µM

Question: What about the IC50 (recombinant human AChE [2]; [9]) of the same compound?
Answer: 11.1 µM

Question: And the IC50 [3, 10]?
Answer: 31.9 ± 21.6 µM

Question: And the IC50 [3, 11]?
Answer: 42.8 ± 2.79 µM

Question: And the “CC-v2 (curve classes)” value (recombinant human AChE [4])?
Answer: -1.1

Question: And the Efficacy (recombinant human AChE [4])?
Answer: -94.606

Question: And the IC50 (recombinant human AChE [5])?
Answer: 58.7 ± 10.6 µM

Question: And the “CC-v2 (curve classes)” value (AChE in SH-SY5Y cells)?
Answer: -2.1

Question: And the IC50 (AChE in SH-SY5Y cells; IC50 (uM))?
Answer: 39.9 µM and 35.6 µM and 31.7 µM

Question: What about the IC50 (AChE in SH-SY5Y cells; [12]) of the same compound?
Answer: 17 ± 1.1 µM

Question: What about the IC50 [6] of the same compound?
Answer: 7.03 ± 3.56 µM

Question: What about the IC50 [7, 13] of the same compound?
Answer: 0.09 ± 0.02 µM

Question: What about the IC50 [7, 14] of the same compound?
Answer: 0.48 ± 0.46 µM

Question: And the “CC-v2 (curve classes)” value (recombinant human AChE [8])?
Answer: -2.1

Question: And the Efficacy (recombinant human AChE [8])?
Answer: -121.235

Question: What about the IC50 (recombinant human AChE [8]; potency (IC50), Enzyme) of the same compound?
Answer: 7.92 ± 0.91 µM

Question: What does the source list for `CCN(C(=O)c1cc(C)cc(OC[C@H](C)Nc2ccncc2)c1)C(C)C.Cc1ccc(S(=O)(=O)O)cc1` [GW473178E methyl benzene sulfonic acid]?
Answer: IR or R (recombinant human AChE [1]): R; AC50 (recombinant human AChE [1]): 11 µM (2×) and 19.6 µM and 9.82 µM (3×) and 8.76 µM and 12.4 µM; IC50 (recombinant human AChE [2]; IC50 (uM)): 49.7 µM; IC50 (recombinant human AChE [2]; [9]): 18.9 µM; IC50 [3, 10]: 9.63 µM; IC50 [3, 11]: 24 µM; CC-v2 (curve classes) (recombinant human AChE [4]): -2.2; Efficacy (recombinant human AChE [4]): -52.62; IC50 (recombinant human AChE [5]): 19.7 ± 2.26 µM; CC-v2 (curve classes) (AChE in SH-SY5Y cells): -1.1; IC50 (AChE in SH-SY5Y cells; IC50 (uM)): 12.5 µM and 11.1 µM; IC50 (AChE in SH-SY5Y cells; [12]): 23.3 µM; IC50 [6]: 24.8 µM; potency (IC50), Neural stem cell spheroid (24 h) [7]: Inactive; IC50 [7, 14]: 31.2 µM; CC-v2 (curve classes) (recombinant human AChE [8]): -2.1; Efficacy (recombinant human AChE [8]): -70.195; IC50 (recombinant human AChE [8]; IC50 (uM)): 22.2 µM; IC50 (recombinant human AChE [8]; potency (IC50), Enzyme): 10.6 µM

Question: `Cc1c(Cl)c(=O)oc2cc(OP(=O)(OCCCl)OCCCl)ccc12` [Haloxon] was tested. Which AC50 (recombinant human AChE [1]) did it give?
Answer: 1.4 µM and 1.57 µM (2×) and 1.11 µM (2×) and 1.25 µM and 885 nM and 993 nM

Question: What about the IC50 (recombinant human AChE [2]; [9]) of the same compound?
Answer: 2.81 ± 0.32 µM

Question: And the IC50 [3, 10]?
Answer: 0.88 ± 0.64 µM

Question: What about the IC50 [3, 11] of the same compound?
Answer: 1.12 ± 0.13 µM

Question: And the “CC-v2 (curve classes)” value (recombinant human AChE [4])?
Answer: -1.1

Question: And the Efficacy (recombinant human AChE [4])?
Answer: -94.886

Question: And the IC50 (recombinant human AChE [5])?
Answer: 1.35 ± 0.09 µM

Question: What about the “CC-v2 (curve classes)” value (AChE in SH-SY5Y cells) of the same compound?
Answer: -1.1

Question: What about the IC50 (AChE in SH-SY5Y cells; IC50 (uM)) of the same compound?
Answer: 3.89 µM and 4.36 µM and 3.09 µM

Question: What about the IC50 (AChE in SH-SY5Y cells; [12]) of the same compound?
Answer: 1.51 ± 0.09 µM

Question: What about the IC50 [6] of the same compound?
Answer: 0.39 µM

Question: And the IC50 [7, 13]?
Answer: 0.2 ± 0.17 µM

Question: And the IC50 [7, 14]?
Answer: 0.18 ± 0.05 µM

Question: And the “CC-v2 (curve classes)” value (recombinant human AChE [8])?
Answer: -1.1

Question: What about the Efficacy (recombinant human AChE [8]) of the same compound?
Answer: -92.736

Question: What about the IC50 (recombinant human AChE [8]; potency (IC50), Enzyme) of the same compound?
Answer: 0.63 ± 0.11 µM
